Patent US6890706B2, “Process for removing stain in a photographic material” (Ciba Specialty Chemicals Corporation, priority 1999, dated 2005)

test: Solubility in 0.2M K2CO3 solution (pH of a developer solution); type: physicochemical; conditions: room temperature

Compared with `O=C([O-])CC(Nc1nc(Nc2ccccc2)nc(Nc2ccc(/C=C/c3ccc(Nc4nc(Nc5ccccc5)nc(NC(CC(=O)[O-])C(=O)[O-])n4)cc3S(=O)(=O)[O-])c(S(=O)(=O)[O-])c2)n1)C(=O)[O-].[Na+].[Na+].[Na+].[Na+].[Na+].[Na+]` (stereo not shown) [B], `O=C([O-])CN(CC(=O)[O-])c1nc(Nc2ccccc2)nc(Nc2ccc(/C=C/c3ccc(Nc4nc(Nc5ccccc5)nc(N(CC(=O)[O-])CC(=O)[O-])n4)cc3S(=O)(=O)[O-])c(S(=O)(=O)[O-])c2)n1.[Na+].[Na+].[Na+].[Na+].[Na+].[Na+]` [E] is higher in “Solubility of the active substance in K2CO3 0.2M solution” value (“Solubility of the active substance” below): 25.6% for the first, 38.5% for the second.

First: O=C([O-])CC(Nc1nc(Nc2ccc(/C=C/c3ccc(Nc4nc(Nc5cc(S(=O)(=O)[O-])ccc5S(=O)(=O)[O-])nc(NC(CC(=O)[O-])C(=O)[O-])n4)cc3S(=O)(=O)[O-])c(S(=O)(=O)[O-])c2)nc(Nc2cc(S(=O)(=O)[O-])ccc2S(=O)(=O)[O-])n1)C(=O)[O-].[Na+].[Na+].[Na+].[Na+].[Na+].[Na+].[Na+].[Na+].[Na+].[Na+] (stereo not shown) [C]
Second: CN(CC(=O)[O-])c1nc(Nc2ccc(/C=C/c3ccc(Nc4nc(Nc5cc(S(=O)(=O)[O-])ccc5S(=O)(=O)[O-])nc(N(C)CC(=O)[O-])n4)cc3S(=O)(=O)[O-])c(S(=O)(=O)[O-])c2)nc(Nc2cc(S(=O)(=O)[O-])ccc2S(=O)(=O)[O-])n1.[Na+].[Na+].[Na+].[Na+].[Na+].[Na+].[Na+].[Na+] [H]
The “Solubility of the active substance” value of the first is higher: 39.0% for the first, 32.0% for the second.

Going from `COc1nc(NCCS(=O)(=O)[O-])nc(Nc2ccc(/C=C/c3ccc(Nc4nc(OC)nc(N(CCO)CCO)n4)cc3S(=O)(=O)[O-])c(S(=O)(=O)[O-])c2)n1.[Na+].[Na+].[Na+]` [Comp-1, reference compound] to `O=S(=O)([O-])c1ccc(Nc2nc(Nc3ccc(/C=C/c4ccc(Nc5nc(Nc6ccc(S(=O)(=O)[O-])cc6S(=O)(=O)[O-])nc(N6CCOCC6)n5)cc4S(=O)(=O)[O-])c(S(=O)(=O)[O-])c3)nc(N3CCOCC3)n2)c(S(=O)(=O)[O-])c1.[Na+].[Na+].[Na+].[Na+].[Na+].[Na+]` [Comp-3, reference compound], the “Solubility of the active substance” value rises from 3.4% to 6.6%.

In the case of `O=C(O)CN(CC(=O)O)c1nc(Nc2ccc(/C=C/c3ccc(Nc4nc(Nc5cc(S(=O)(=O)O)ccc5S(=O)(=O)O)nc(N(CC(=O)O)CC(=O)O)n4)cc3S(=O)(=O)O)c(S(=O)(=O)O)c2)nc(Nc2cc(S(=O)(=O)O)ccc2S(=O)(=O)O)n1.[Na+].[Na+].[Na+].[Na+].[Na+].[Na+].[Na+].[Na+].[Na+].[Na+]` [G], the “Solubility of the active substance” value is reported as 32.0%.
